According to patent publication US20180271853A1, “Method of Use for Inhibitors of Epidermal Growth Factor Receptor Variant III” (METASTAT, INC., priority 2015, published 2018):
pEC50: −log10 of the molar value. Values belong to the compound of their own block, whether it stands above or below them.

Tests used:
[1] = target: T1, phosphoY1173-EGFRviii expressed in U87MG tumor cells (Homo sapiens, UniProt P00533, DELINS30-297G); experiment: Inhibition of phosphoY1173-EGFRviii in U87MG tumor cells engineered to express EGFR-viii (in-cell ELISA); assay type: cell-based; conditions: for activity against EGFR-viii: FIG. 1
T1 construct: expressed in transfected cells; host or cells: U87MG (ATCC), lentiviral infection, puromycin selection
Protocol: Cells stably expressing EGFR-WT or EGFR-viii were maintained in the presence of 0.5 ug/ml puromycin.
All EGFR inhibitors were purchased from Selleck Chemicals, Houston TX, at a concentration of 10 mM in DMSO. […] Serial dilution of compounds was prepared using DMSO at 100× the final concentration indicated and then diluted in cell media to the final concentration indicated.
Data are expressed as EC50 and were determined using an in-cell ELISA kit (Pierce).

[2] = test system: tumors expressing EGFR-viii; conditions: cited from earlier work; for benefit for GBM in clinical studies: clinical studies evaluating reversible or covalent EGFR inhibitors in GBM
EGFR-viii = EGFR-viii (Homo sapiens, UniProt P00533, DELINS30-297G); conditions: Ji, Zhao et al., 2006; Vivanco, Robins et al., 2012; cited from earlier work

Structure (SMILES): C=CC(=O)Nc1cccc(Oc2nc(Nc3ccc(N4CCN(C)CC4)cc3)ncc2Cl)c1 [WZ3146]
activity against EGFR-viii [1]: weak activity

Structure (SMILES): C#Cc1cccc(Nc2ncnc3cc(OCCOC)c(OCCOC)cc23)c1 [erlotinib]
benefit for GBM in clinical studies [2]: failed to demonstrate significant benefit

activity against EGFR-viii [1]: weak activity
Structure (SMILES): C=CC(=O)Nc1cccc(Nc2nc(Nc3ccc(N4CCN(C(C)=O)CC4)cc3OC)ncc2C(F)(F)F)c1 [CO-1686]

Structure (SMILES): CS(=O)(=O)CCNCc1ccc(-c2ccc3ncnc(Nc4ccc(OCc5cccc(F)c5)c(Cl)c4)c3c2)o1 [lapatinib]
benefit for GBM in clinical studies [2]: failed to demonstrate significant benefit
cancer growth inhibition in clinical studies ([2]; clinical studies, GBM): insignificant cancer growth inhibition

pEC50 ([1]; in-cell ELISA, FIG. 1, read-out: EC50 against EGFR-viii): > 7.30
Structure (SMILES): C=CC(=O)Nc1ccc2ncnc(Nc3ccc(OCc4cccc(F)c4)c(Cl)c3)c2c1 [AST-1306]

Structure (SMILES): COc1cc2ncnc(Nc3ccc(F)c(Cl)c3)c2cc1NC(=O)/C=C/CN1CCCCC1 [dacomitinib]
inhibition of EGFR-viii (recent studies) (EGFR-viii): potent inhibitors of EGFR-viii

activity against EGFR-viii [1]: weak activity
Structure (SMILES): C=CC(=O)Nc1cccc(Sc2nc(Nc3ccc(N4CCN(C)CC4)cc3)ncc2Cl)c1 [WZ8040]
